Experimental data taken from PMC10385636, “Inhibition Mechanism of Chitooligosaccharide-Polyphenol Conjugates toward Polyphenoloxidase from Shrimp Cephalothorax” (Molecules, 2023).

Test system: T1, PPO (polyphenoloxidase from Pacific white shrimp cephalothorax)
T1 construct: gene proPO; crude native extract of cephalothorax powder; not purified; isoenzyme not identified (hemocyanin-derived activity not excluded); docking model 3WKY is not the assayed protein
Experiment: dopachrome absorbance at […] nm, Lineweaver-Burk
Assay type: biochemical, Penaeus vannamei
Conditions: no inhibitor (0 mg/mL); crude extract; pH 6.0, 45 °C per activity assay; unit as in table footnote but substrate was dosed 2.5-25 mM, so unit is doubtful (possibly mM)

N[C@@H](Cc1ccc(O)c(O)c1)C(=O)O [L-DOPA]
Concentration (mg/mL) / 0: 7.0695 mg/mL
